Experimental data reported in ChEMBL document CHEMBL2429769, “Synthesis and bioconversions of formestane” (J Nat Prod, 2013).
pIC50: −log10 of the molar value.

Legend:
[1] = tested on: MCF7; test: Cytotoxicity against human MCF7 cells after 72 hrs by SRB assay; type: functional, cell-based; conditions: MCF7, 72 h
[2] = biological target: T1, Aromatase (Homo sapiens, UniProt P11511)
T1 sequence (P11511 whole entry): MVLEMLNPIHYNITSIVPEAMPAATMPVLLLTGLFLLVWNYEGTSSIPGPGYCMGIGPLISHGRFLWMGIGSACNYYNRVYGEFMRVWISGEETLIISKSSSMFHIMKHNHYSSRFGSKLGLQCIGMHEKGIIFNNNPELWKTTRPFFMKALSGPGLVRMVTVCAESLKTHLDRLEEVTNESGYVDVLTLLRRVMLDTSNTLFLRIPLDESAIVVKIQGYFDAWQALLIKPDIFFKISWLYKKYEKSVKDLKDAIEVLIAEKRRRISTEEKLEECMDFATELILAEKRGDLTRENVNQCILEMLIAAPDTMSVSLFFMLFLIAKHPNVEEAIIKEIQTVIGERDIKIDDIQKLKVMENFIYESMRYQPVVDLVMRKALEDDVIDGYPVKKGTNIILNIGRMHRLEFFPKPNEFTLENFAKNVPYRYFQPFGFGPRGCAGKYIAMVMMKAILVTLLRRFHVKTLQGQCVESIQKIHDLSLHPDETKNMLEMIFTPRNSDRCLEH
Description: Inhibition of aromatase (unknown origin) using dibenzylfluorescein as substrate after 30 mins by fluorescence assay

Structure (SMILES) | pIC50 [1] | pIC50 [2]
C[C@]12CC[C@H]3[C@@H](CC[C@@]4(O)[C@@H](O)C(=O)CC[C@]34C)[C@@H]1CCC2=O | 4.82 | 4.54
C[C@]12CC[C@H]3[C@@H](CCC4=C(O)C(=O)CC[C@@]43C)[C@@H]1CC[C@@H]2O | 4.78 | 4.33
C[C@]12C[C@@H](O)[C@H]3[C@@H](CCC4=C(O)C(=O)CC[C@@]43C)[C@@H]1CC[C@@H]2O | 4.90 | 4.96
C[C@]12CC[C@@H](O)C(=O)[C@H]1CC[C@@H]1[C@@H]2CC[C@]2(C)[C@@H](O)CC[C@@H]12 [3ALPHA,17BETA-DIHYDROXY-5BETA-ANDROSTAN-4-ONE] | 4.79 | 5.41
C[C@]12CCC(=O)C(O)=C1CC[C@@H]1[C@@H]2CC[C@]2(C)C(=O)CC[C@@H]12 [FORMESTANE] | 4.70 | 4.23
CC[C@]1(O)C[C@@H]2CN(CCc3c([nH]c4ccccc34)[C@@](C(=O)OC)(c3cc4c(cc3OC)N(C)[C@H]3[C@@](O)(C(=O)OC)[C@H](OC(C)=O)[C@]5(CC)C=CCN6CC[C@]43[C@@H]65)C2)C1 [VINBLASTINE] | 7.96 | –
